# Results taken from patent EP4328302A1, “SYNTHESIS OF […] P450 MONO[…] A […]-FREE SYSTEM […] VESICLES” (Fraunhofer-Gesellschaft zur Förderung der angewandten …, priority 2022, dated 2024).
# Biological target: T1, CYP3A4 (Homo sapiens, UniProt P08684)
# T1 construct: made in house; host or cells: cell-free protein synthesis in translationally active lysates of CHO-K1 or modified CHO (CHO-CPR, CHO-CPR/CYP3A4) cells; plasmid template from Biocat GmbH
# Assay: Luciferase based CYP3A4 activity assay (P450-Glo, Luciferin-IPA turnover) in the microsomal fraction after cell-free synthesis with heme supplementation
# Format: biochemical
# Protocol: Synthesis of proteins in translationally active lysates derived from cultured Chinese hamster ovary (CHO) cells and its modified variants CHO-CPR and CHO-CPR/CYP3A4 cells, was performed in batch based systems as previously described (Thoring et al. 2016). Accordingly designed plasmids, suitable for CFPS, coding for the CYP of interest, were applied as template. T7 RNA Polymerase, amino acids, an energy regeneration system and other supplements were added to the translationally active lysates with the additional supplementation of 5 µM heme (porcine) (Alfa Aesar Haverhill, Massachusetts, USA) to the reaction and a reaction temperature of 24 °C despite elsewise noted. For the isolation of the microsomes the translation mixture (TM) was centrifuged at 16.000 x g for 10 minutes at 4 °C. […]
# For CYP activity measurement,"P450-Glo™ Assays" (Promega, Madison, Wisconsin, USA) were used. CYP1A2 activity was detected by Luciferase-ME turnover (V8772), CYP2B6 was detected by Luciferin-2B6 turnover (V8321) and CYP3A4 was detected by Luciferin-IPA turnover (V9001). […] For response condition adjustments, CYP activities were usually expressed as percentage of the highest CYP activity during the assay. For CYP activity quantification, a standard curve was prepared using beetles luciferin (Promega, Madison, Wisconsin, USA) according to the attached protocol. […]
# T1 sequence (P08684 whole entry): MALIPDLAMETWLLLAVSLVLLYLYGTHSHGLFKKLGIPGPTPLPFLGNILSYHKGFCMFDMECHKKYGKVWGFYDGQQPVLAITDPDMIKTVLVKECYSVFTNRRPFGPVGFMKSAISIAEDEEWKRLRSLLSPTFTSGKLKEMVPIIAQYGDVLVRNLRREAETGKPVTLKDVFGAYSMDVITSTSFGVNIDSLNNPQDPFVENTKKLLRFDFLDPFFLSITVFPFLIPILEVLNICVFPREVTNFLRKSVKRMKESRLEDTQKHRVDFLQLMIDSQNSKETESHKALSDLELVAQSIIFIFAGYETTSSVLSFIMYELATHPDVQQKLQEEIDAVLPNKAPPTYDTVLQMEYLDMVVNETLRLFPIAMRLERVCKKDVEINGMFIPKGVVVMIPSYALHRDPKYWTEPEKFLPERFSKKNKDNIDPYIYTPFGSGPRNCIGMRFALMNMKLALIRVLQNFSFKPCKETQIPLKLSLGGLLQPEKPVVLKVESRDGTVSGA
smiles,measurement,setting,value
C=CC1=C(C)c2cc3[n-]c(cc4[n-]c(cc5nc(cc1n2)C(C)=C5C=C)c(C)c4CCC(=O)O)c(CCC(=O)O)c3C.[Fe+2] [heme],CYP3A4 activity compared to the control without supplementation,"heme concentration of 5 µM in the cell-free reaction, microsomal fraction (MF), triplicate analysis, highest CYP3A4 activity",more than twofold higher
same,reduced activity compared to the 5 µM heme supplemented sample,"supplementation of higher concentrations of heme (above 5 µM) to the cell-free reaction, CYP3A4 activity in MF",60%
